Measured values published in patent US5631257A, “Benzoxazole derivatives” (Meiji Seika Kaisha, Ltd., priority 1993, dated 1997).
Read-outs that look alike come from different tables or passages of the source.

Tests used:
5-HT3 receptor [1] = molecular target: T1, 5-HT3 receptor (Mus musculus, UniProt P23979); assay: 5-HT3 receptor binding affinity (inhibition of [^3 H]-GR65630 binding); conditions: membrane fraction from rat N1E-115 cells
T1 construct: membrane fraction prepared from rat N1E-115 cells; endogenous in cells; host or cells: N1E-115 cells, membrane fraction
T1 sequence (P23979 24-483 isoform P23979-2 limits assumed): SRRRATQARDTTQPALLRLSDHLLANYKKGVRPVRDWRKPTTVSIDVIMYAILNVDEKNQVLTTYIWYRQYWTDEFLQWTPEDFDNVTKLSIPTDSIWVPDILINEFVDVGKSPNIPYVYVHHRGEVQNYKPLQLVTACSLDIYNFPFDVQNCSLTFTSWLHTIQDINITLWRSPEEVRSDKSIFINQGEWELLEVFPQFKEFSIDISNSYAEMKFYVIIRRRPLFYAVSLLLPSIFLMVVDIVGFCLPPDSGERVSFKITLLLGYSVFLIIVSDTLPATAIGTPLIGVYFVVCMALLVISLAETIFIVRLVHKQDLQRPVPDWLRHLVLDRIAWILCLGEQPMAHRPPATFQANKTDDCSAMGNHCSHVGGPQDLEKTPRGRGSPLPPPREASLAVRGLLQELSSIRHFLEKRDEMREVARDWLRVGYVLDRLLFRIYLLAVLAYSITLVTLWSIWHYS
Source text: Using a membrane fraction prepared from rat N1E-115 cells in accordance with the procedure of Lummis et al. (European Journal of Pharmacology, 189, 223-227, 1990), effects of the inventive compounds to inhibit binding of [^3 H]-GR65630 which was radioligand 5-HT3 antagonist to 5-HT3 receptor were examined, with the results shown in Table 1.

5-HT3 receptor [2] = assay: 5-HT3 receptor antagonism (inhibition of 5-HT-induced bradycardia in anesthetized mice); type: in vivo; conditions: 30 minutes before 5-HT 0.25 mg/kg i.v.
Protocol: In accordance with the procedure of Saxena et al. (Arch. Int. Pharmacodyn.,277, 235-252, 1985), each compound was dissolved in distilled water for injection to give different concentration and was administered intraperitoneally to mice which had been anesthetized with pentobarbital (3 animals per group), and ratio of inhibition of bradycardia induced by 5-HT administration (0.25 mg/kg, i.v.) was examined 30 minutes thereafter.

cisplatin-treated dogs = assay: Antiemetic effect in cisplatin-treated dogs; type: in vivo; conditions: 0.1 × 2 mg/kg i.v., 30 minutes before and 2 hours after cisplatin 3 mg/kg i.v.; observed over 6 hours; control 13.5
Protocol: Each of test dogs (2 animals per group) after 16 hours of fasting was fed with 200 g of a solid food, and cisplatin was administered to the animal 30 minutes thereafter by intravenous injection with a dose of 3 mg/kg. The test compound was dissolved in distilled water for injection and was administered by intravenous injection 30 minutes before and 2 hours after the cisplatin administration, and frequency and duration of emesis were observed over 6 hours.

[3] = 10^-7 M, read-out: Binding inhibitory ratio of [^3 H]-GR65630 at 10^-7 M
[4] = read-out: Binding inhibitory ratio of [^3 H]-GR65630 at 10^-7 M, 10^-7 M

Row | SMILES | inhibition at 0.1 µM (5-HT3 receptor [1]; [3]) | also measured
1 | CN1CCN(c2nc3ccccc3o2)CC1 [Example 1, 2-(4-Methyl-1-piperazinyl)benzoxazole] | 89.4% | Inhibitory ratio (bradycardia induced by 5-HT) (5-HT3 receptor [2]; 3 mg/kg i.p.): 76%
2 | C[N+]1(C)CCN(c2nc3ccccc3o2)CC1 [Example 2, 1,1-Dimethyl-4-(benzoxazol-2-yl)piperazinium iodide] |  | inhibition at 0.1 µM (5-HT3 receptor [1]; [4]): 45.5%
3 | C=CC[N+]1(C)CCN(c2nc3ccccc3o2)CC1.[I-] [Example 3, 1-Allyl-1-methyl-4-(benzoxazol-2-yl)piperazinium iodide] | 52.8% | Inhibitory ratio (bradycardia induced by 5-HT) (5-HT3 receptor [2]; 0.3 mg/kg i.p.): 82%; Frequency of emesis (cisplatin-treated dogs): 0 times
4 | C=CC[N+]1(C)CCN(c2nc3ccccc3o2)CC1 [Example 4, 1-Allyl-1-methyl-4-(benzoxazol-2-yl)piperazinium chloride] |  | inhibition at 0.1 µM (5-HT3 receptor [1]; [4]): 48%
5 | C[N+]1(CCO)CCN(c2nc3ccccc3o2)CC1.[I-] [Example 5, 1-(2-Hydroxyethyl)-1-methyl-4-(benzoxazol-2-yl)piperazinium iodide] | 78% | Inhibitory ratio (bradycardia induced by 5-HT) (5-HT3 receptor [2]; 0.3 mg/kg i.p.): 61%
6 | CN1CCCN(c2nc3ccccc3o2)CC1 [Example 13, 2-(4-Methyl-1-homopiperazinyl)benzoxazole] | 97.3% | 
7 | C[N+]1(C)CCCN(c2nc3ccccc3o2)CC1 [Example 14, 1,1-Dimethyl-4-(benzoxazol-2-yl)homopiperazinium iodide] | 44.4% | 

Now from value to compound, other results behind:

Row | inhibition at 0.1 µM (5-HT3 receptor [1]; [3]) | SMILES | also measured
8 | 46% | C[N+]1(CCO)CCCN(c2nc3ccccc3o2)CC1 (centres unmarked) [Example 16, 1-(2-Hydroxyethyl)-1-methyl-4-(benzoxazol-2-yl)homo-piperazinium iodide] | 
9 | 54.3% | OCCN1CCCN(c2nc3ccccc3o2)CC1 [Example 19, 2-[4-(2-Hydroxyethyl)-1-homopiperazinyl]benzoxazole] | 
10 | 51.6% | C=CC[N+]1(C)CCN(c2nc3ccc(O)cc3o2)CC1 [Example 22, 1-Allyl-1-1-methyl-4-(6-hydroxybenzoxazol-2-yl)piperazinium iodide] | 
